Laboratory results reported in EP4772510A2, “BENZAZEPINONE COMPOUND AND USE THEREOF” (HANGZHOU BIO-SINCERITY PHARMA-TECHCO., LTD., priority 2023, dated 2025).

Legend:
U937 cells = assay: Inhibition of TNF-α-induced necroptosis of U937 cells (CCK-8 assay); type: cell-based, human; conditions: Homo sapiens, U-937, TNF-α 20 ng/mL + BV6 2 µM + Z-VAD-FMK 20 µM, 18 h
Text: Example 56: Inhibition of TNF-α-Induced Necroptosis of U937 Cells by Compounds
• 1. Experimental reagents: RPMI-1640 culture medium, fetal bovine serum, penicillin-streptomycin, TNF-α (MCE, HY-P7058), BV6 (MCE, HY-16701), Z-VAD-FMK (MCE, HY-16658B), and CCK-8 (Dalian Meilun Biotech Co., Ltd., MA0218). • 2. Experimental instruments: medical low-temperature freezer (Thermo Fisher scientific, 902-ULTS), electrically heated thermostatic water bath (Shanghai Bluepard Instruments Co., Ltd., CD-420), low-speed centrifuge (ANHUI USTC Zonkia Scientific Instruments Co., Ltd, SC-3616), carbon dioxide incubator (Shanghai Bluepard Instruments Co., Ltd., BPN-150CH(UV)), inverted microscope (Olympus, CKX53), multi-functional microplate reader (Thermo Tecan, SPARK), class-II biosafety cabinet (AIRTECH, BSC-1304IIA2), and desktop cell counter (Thermo Fisher Scientific, Countess II). • 3. Cell culturing: U937 cells (human histiocytic lymphoma cells) were cultured in an RPMI-1640 culture solution containing 10% fetal bovine serum and 1% penicillin-streptomycin solution in a 5% CO2 incubator at 37 °C and a saturated humidity. The cell culture flask was vertically placed in the incubator. A T25 culture flask was used as an example, the culture solution in the flask was 6-8 mL, and culture medium changes and cell passaging were performed 3-4 times a week. • 4. […] The culture medium was taken out from the freezer and transferred to the water bath for pre-heating. An appropriate amount of culture medium was then taken for use. • (2) The cell suspension was transferred to a 15 mL sterile centrifuge tube and centrifuged at 850 rpm for 4 min to collect U937 cells. • (3) The supernatant was carefully discarded, and an appropriate amount of culture medium was added. The mixture was gently pipetted using a pipette to homogenize the cells and thus prepare a single-cell suspension, and the cells were counted. • (4) The cells were diluted to 4 × 10^5/mL and seeded into a 96-well plate at 90 µL/well, such that the cell density in the 96-well plate was 3.6 × 10 ^4 cells/well. The cells were incubated in a 5% CO 2 incubator at 37 °C and a saturated humidity for 6 h, followed by the addition of compounds. • 4.2 Dilution and addition of compounds: • (1) TNF-α was dissolved in PBS to obtain a 100 µg/mL stock solution and aliquoted; Z-VAD-FMK was dissolved in DMSO to obtain a 10 mM stock solution and aliquoted; BV6 was dissolved in DMSO to obtain a 10 mM stock solution and aliquoted; GSK2982772 was dissolved in DMSO to obtain a 10 mM stock solution and aliquoted. One aliquot of each stock solution was stored at -20 °C for immediate use, while the remaining aliquots were stored at - 80 °C and used within their shelf life. • (2) RPMI-1640 culture medium containing TNF-α, BV6, and Z-VAD-FMK was prepared (5 µL/per well), such that the final concentrations of TNF-α, BV6, and Z-VAD-FMK were 20 ng/mL, 2 µM, and 20 µM, respectively. • (3) Each target compound was three-fold diluted with a culture medium to 8 concentration gradients, with each concentration set in duplicate (5 µL/well). The final concentrations of each target compound were 1000.00/333.33/111.11/37.04/12.35/4.12/1.37/0.46 nM. • (4) The 96-well plate containing 90 µL of cell suspension was taken out from an incubator, and a positive control group, test compound groups, and a DMSO (5‰) control group were set. 5 µL of RPMI-1640 culture solution containing TNF-α, BV6, and Z-VAD-FMK and 5 µL of culture solution containing the test compound were added to the positive control group and the test compound groups. After compound addition, the mixtures were cultured for 18 h, followed by the CCK-8 assay. • (5) The 96-well plate was taken out, and the CCK-8 reagent was carefully added at 10 µL/well. The mixtures were incubated at 37 °C for 2-4 h, and the absorbance value was measured at a wavelength of 450 nm. • 5. Evaluation of inhibitory activity of compounds on TNF-α-induced necroptosis of U937 [formula] […]

HT-29 cells = assay: Inhibition of TNF-α-induced necroptosis of HT-29 cells (SRB method); type: cell-based, human; conditions: Homo sapiens, HT-29, TNF-α 20 ng/mL + BV6 2 µM + Z-VAD-FMK 20 µM, 18 h
Text: Example 57: Inhibition of TNF-α-Induced Necroptosis of HT-29 Cells by Compounds
• 1. Experimental reagents: McCOY's 5A culture medium, fetal bovine serum, penicillin-streptomycin, trypsin, PBS, TNF-α (MCE, HY-P7058), BV6 (MCE, HY-16701), Z-VAD-FMK (MCE, HY-16658B), SRB kit (Shanghai BestBio Biotechnology Co., Ltd., BB-4208-500T). • 2. Experimental instruments: medical low-temperature freezer (Thermo Fisher scientific, 902-ULTS), electrically heated thermostatic water bath (Shanghai Bluepard Instruments Co., Ltd., CD-420), low-speed centrifuge (ANHUI USTC Zonkia Scientific Instruments Co., Ltd, SC-3616), carbon dioxide incubator (Shanghai Bluepard Instruments Co., Ltd., BPN-150CH(UV)), inverted microscope (Olympus, CKX53), multi-functional microplate reader (Thermo Tecan, SPARK), class-II biosafety cabinet (AIRTECH, BSC-1304IIA2), and desktop cell counter (Thermo Fisher Scientific, Countess II). • 3. Cell culturing: HT-29 cells (human colon cancer cells) were cultured in a McCOY's 5A culture solution containing 10% fetal bovine serum and 1% penicillin-streptomycin solution in a 5% CO 2 at 37 °C and a saturated humidity, and culture medium changes and cell passaging were performed 3-4 times a week. • 4. […] The culture medium, trypsin, etc., were taken out from the freezer and transferred to the water bath for pre-heating. An appropriate amount of these substances was then taken for use. • (2) The old culture medium in the flask was aspirated using a sterile pipette and discarded, and the cells were washed 3 times with PBS. 1 mL of trypsin (25 cm^2 cell culture flask) was added into the flask, and the flask was gently shaken to allow the trypsin to cover all the cell surfaces. Digestion was performed in an incubator at 37 °C. After 2 min of digestion, the flask was placed under a microscope for observation. […] The mixture was gently pipetted using a pipette to homogenize the cells and thus prepare a single-cell suspension, and the cells were counted. • (5) The cells were diluted to 3 × 10^5/mL and seeded into a 96-well plate at 100 µL/well, such that there were 3 × 10^4 cells per well in the 96-well plate. The cells were incubated in a 5% CO2 incubator at 37 °C and a saturated humidity for 24 h, followed by the addition of compounds. • 4.2 Dilution and addition of compounds: • (1) TNF-α was dissolved in PBS to obtain a 100 µg/mL stock solution and aliquoted; Z-VAD-FMK was dissolved in DMSO to obtain a 10 mM stock solution and aliquoted; BV6 was dissolved in DMSO to obtain a 10 mM stock solution and aliquoted; GSK2982772 was dissolved in DMSO to obtain a 10 mM stock solution and aliquoted. One aliquot of each stock solution was stored at -20 °C for immediate use, while the remaining aliquots were stored at - 80 °C and used within their shelf life. • (2) McCOY's 5A culture solution containing TNF-α, BV6, and Z-VAD-FMK was prepared. For the positive control group and the test compound groups, the McCOY's 5A culture solution was added at 90 µL/well, and 10 µL of the culture medium containing the test compound was also added, thus making the final concentrations of TNF-α, BV6, and Z-VAD-FMK be 20 ng/mL, 2 µM, and 20 µM, respectively. For the DMSO (5‰) control group, 90 µL of the McCOY's 5A complete culture solution was added, and then 10 µL of DMSO was added, thus making the final concentration 5‰. • (3) Each target compound was three-fold diluted with a culture medium to 8 concentration gradients, with each concentration set in duplicate (10 µL/well). The final concentrations of each target compound were 1000.00/333.33/111.11/37.04/12.35/4.12/1.37/0.46 nM. • (4) The 96-well plate cultured for 24 h was taken out from the incubator, and the culture medium in the 96-well plate was carefully aspirated and discarded. A positive control group, test compound groups, and a DMSO (5‰) control group were set, and 10 µL of the corresponding compound was added to each group. […]

| Structure (SMILES) | EC50 (U937 cells) [nM] | EC50 (HT-29 cells) [nM] |
| --- | --- | --- |
| O=C(NC1CCc2cc(C#CC3CC3)cc3c2N(CC3)C1=O)c1nnc(Cc2ccccc2)[nH]1 (stereo not drawn) [Compound I-1, 5-benzyl-N-(9-(cyclopropylethynyl)-4-oxo-1,2,3,4,6,7-hexahydroazepino[3,2,1-hi]indol-3-yl)-4H-1,2,4-triazole-3-carboxamide] | > 200 | 100 to 200 |
| O=C(NC1CCc2cc(C#Cc3ccccn3)cc3c2N(CC3)C1=O)c1nnc(Cc2ccccc2)[nH]1 (stereo not drawn) [Compound I-2, 5-benzyl-N-(4-oxo-9-(pyridin-2-ylethynyl)-1,2,3,4,6,7-hexahydroazepino[3,2,1-hi]indol-3-yl)-4H-1,2,4-triazole-3-carboxamide] | 100 to 200 | 10 to 100 |
| O=C(NC1CCc2cc(C#Cc3cccnc3)cc3c2N(CC3)C1=O)c1nnc(Cc2ccccc2)[nH]1 (stereo not drawn) [Compound I-3, 5-benzyl-N-(4-oxo-9-(pyridin-3-ylethynyl)-1,2,3,4,6,7-hexahydroazepino[3,2,1-hi]indol-3-yl)-4H-1,2,4-triazole-3-carboxamide] | 100 to 200 | 10 to 100 |
| O=C(NC1CCc2cc(C#Cc3ccncc3)cc3c2N(CC3)C1=O)c1nnc(Cc2ccccc2)[nH]1 (stereo not drawn) [Compound I-4, 5-benzyl-N-(4-oxo-9-(pyridin-4-ylethynyl)-1,2,3,4,6,7-hexahydroazepino[3,2,1-hi]indol-3-yl)-4H-1,2,4-triazole-3-carboxamide] | 100 to 200 | 100 to 200 |
| Cn1cc(C#Cc2cc3c4c(c2)CCN4C(=O)C(NC(=O)c2nnc(Cc4ccccc4)[nH]2)CC3)cn1 (stereo not drawn) [Compound I-5, 5-benzyl-N-(9-((1-methyl-1H-pyrazol-4-yl)ethynyl)-4-oxo-1,2,3,4,6,7-hexahydroazepino[3,2,1-hi]indol-3-yl)-4H-1,2,4-triazole-3-carboxamide] | 10 to 100 | 100 to 200 |
| O=C(NC1CCc2cc(C#CC3CCOCC3)cc3c2N(CC3)C1=O)c1nnc(Cc2ccccc2)[nH]1 (stereo not drawn) [Compound I-6, 5-benzyl-N-(4-oxo-9-((tetrahydro-2H-pyran-4-yl)ethynyl)-1,2,3,4,6,7-hexahydroazepino[3,2,1-hi]indol-3-yl)-4H-1,2,4-triazole-3-carboxamide] | 10 to 100 | 10 to 100 |
| CC(C)(O)C#Cc1cc2c3c(c1)CCN3C(=O)C(NC(=O)c1nnc(Cc3ccccc3)[nH]1)CC2 (stereo not drawn) [Compound I-7, 5-benzyl-N-(9-(3-hydroxy-3-methylbut-1-yn-1-yl)-4-oxo-1,2,3,4,6,7-hexahydroazepino[3,2,1-hi]indol-3-yl)-4H-1,2,4-triazole-3-carboxamide] | 100 to 200 | > 200 |
| O=C(NC1CCc2cc(C#Cc3ccncc3)cc3c2N(CC3)C1=O)c1nnc(Cc2ccc(F)cc2)[nH]1 (stereo not drawn) [Compound I-8, 5-(4-fluorobenzyl)-N-(4-oxo-9-(pyridin-4-ylethynyl)-1,2,3,4,6,7-hexahydroazepino[3,2,1-hi]indol-3-yl)-4H-1,2,4-triazole-3-carboxamide] | > 200 | > 200 |
| O=C(NC1CCc2cc(C#Cc3ccncc3)cc3c2N(CC3)C1=O)c1nnc(Cc2ccc(Cl)cc2)[nH]1 (stereo not drawn) [Compound I-9, 5-(4-chlorobenzyl)-N-(4-oxo-9-(pyridin-4-ylethynyl)-1,2,3,4,6,7-hexahydroazepino[3,2,1-hi]indol-3-yl)-4H-1,2,4-triazole-3-carboxamide] | > 200 | > 200 |
| O=C(NC1CCc2cc(C#Cc3ccncc3)cc3c2N(CC3)C1=O)c1nnc(Cc2ccccc2Cl)[nH]1 (stereo not drawn) [Compound I-10, 5-(2-chlorobenzyl)-N-(4-oxo-9-(pyridin-4-ylethynyl)-1,2,3,4,6,7-hexahydroazepino[3,2,1-hi]indol-3-yl)-4H-1,2,4-triazole-3-carboxamide] | 100 to 200 | > 200 |
| O=C(NC1CCc2cc(C#Cc3ccncc3)cc3c2N(CC3)C1=O)c1nnc(Cc2ccccc2F)[nH]1 (stereo not drawn) [Compound I-11, 5-(2-fluorobenzyl)-N-(4-oxo-9-(pyridin-4-ylethynyl)-1,2,3,4,6,7-hexahydroazepino[3,2,1-hi]indol-3-yl)-4H-1,2,4-triazole-3-carboxamide] | 100 to 200 | 100 to 200 |
| O=C(NC1CCc2cc(C#Cc3ccncc3)cc3c2N(CC3)C1=O)c1nnc(Cc2c(F)cccc2F)[nH]1 (stereo not drawn) [Compound I-12, 5-(2,6-difluorobenzyl)-N-(4-oxo-9-(pyridin-4-ylethynyl)-1,2,3,4,6,7-hexahydroazepino[3,2,1-hi]indol-3-yl)-4H-1,2,4-triazole-3-carboxamide] | 10 to 100 | 10 to 100 |
